Key:
[1] = system: Regular RNA 20-mer oligonucleotide SEQ ID NO:1; test: Duplex melting temperature (Tm), SEQ ID NO:1 strand as Regular RNA; format: binding; settings: SEQ ID NO:1 strand Regular RNA; four μM each strand, 50 mM NaCl, 10 mM PO4 buffer, pH 7.4
Experimental: (§1) The stability of duplexes having 2′-substituted nucleotides versus duplexes without such modification was tested by examining the Tm of these complexes. four μM each of 20-mer oligonucleotide (5′-ggt ggt tcc tcc tca gtc gg-3′; SEQ ID NO:1) and its complement (5′-ccg act gag aag gaa cca cc-3′; SEQ ID NO:2) were bound in a solution of 50 mM NaCl, 10 mM PO4 buffer, pH 7.4. Each of the nucleotides of the oligonucleotide had the same 2′ group. Following binding, the melting temperature was determined as described (See L. L. Cummins et al., Nucleic Acids Research 23:2019-2024 (1995)).

[2] = system: 2′-OMe RNA oligo 150-mer (SEQ ID NO:3); test: Fluorescence signal of 12-mer probes bound to captured 150-mer on streptavidin plate; format: binding; settings: individual probes, fluorescence (Oregon Green 488)
From the text: A 2′-OMe RNA oligo 150-mer (SEQ ID NO:3) was captured using a 15-mer 2′-OMe oligo tethered through biotin-streptavidin onto a white 96-well plate. Observations were taken of individual 2′-OMe 12-mers complementary to portions of the 150-mer labeled on the 5′-end with Oregon Green 488. Once the signal levels were obtained for single sequences, various combinations of the 12-mers were used to determine whether the fluorescence signal from the probes was additive. The sequences of these probes were chosen at 12-base steps through the sequence of the 150-mer.

[3] = biological target: Avidin (Gallus gallus, UniProt P02701); settings: cited from earlier work
Sequence of Avidin (P02701 25-152): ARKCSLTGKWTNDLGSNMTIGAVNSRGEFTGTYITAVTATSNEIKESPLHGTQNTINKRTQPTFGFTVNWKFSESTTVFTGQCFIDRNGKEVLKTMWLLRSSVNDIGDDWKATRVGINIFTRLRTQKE

[4] = system: polyclonal antibodies to cAMP; settings: cited from earlier work
[5] = system: Regular DNA 20-mer oligonucleotide SEQ ID NO:1; test: Duplex melting temperature (Tm), SEQ ID NO:1 strand as Regular DNA; format: binding; settings: SEQ ID NO:1 strand Regular DNA; four μM each strand, 50 mM NaCl, 10 mM PO4 buffer, pH 7.4
Experimental: as §1

[6] = system: folate binding proteins; settings: cited from earlier work

2′-O-methyl: 20-mer SEQ ID NO:2 (5′-ccg act gag aag gaa cca cc-3′), each nucleotide 2′-O-methyl
Tm [1]: 79 °C

5′-AUAGGGAAUCCU-butanol-3′ [Probe (6)]
Signal [2]: 810

5′-CCACCUCACGAA-butanol-3′ [Probe (2)]
Signal ([2]; listed as (2)): 297

5′-CCACCUCACGAA-butanol-3′ [Probe (9)]
Signal ([2]; listed as (9)): 514

5′-CGAGUCCUGCAC-butanol-3′ [Probe (5)]
Signal [2]: 85

5′-GCCGUACUGUAG-butanol-3′ [Probe (3)]
Signal [2]: 256

5′-GGGGCCGUACUG-butanol-3′ [Probe (10)]
Signal [2]: 46

5′-GUGCGGGUGAUG-butanol-3′ [Probe (4)]
Signal [2]: 115

5′-UGCAGUACAUGU-butanol-3′ [Probe (7)]
Signal [2]: 466

5′-UGUUCACCAUGC-butanol-3′ [Probe (1)]
Signal ([2]; listed as (1)): 124

5′-UGUUCACCAUGC-butanol-3′ [Probe (8)]
Signal ([2]; listed as (8)): 133

COC(=O)CCCCC1SCC2C1NC(=O)N2C(=O)OC (centres unmarked) [1′-N-methoxy-carbonylbiotin methyl ester]
Binding affinity with Avidin [3]: 10^7 M^−1

O=C(O)CCCCC1SCC2NC(=S)NC21 (centres unmarked) [2-thiobiotin]
Binding affinity with Avidin [3]: 10^13 M^−1

COC(=O)CCCCC1SCC2NC(=O)N(C(=O)OC)C21 (centres unmarked) [3′-N-methoxy-carbonylbiotin methyl ester]
Binding affinity with Avidin [3]: 10^9 M^−1

O=C(O)CCCC[C@@H]1SC[C@@H]2NC(=O)N[C@@H]21 [Biotin]
Binding affinity with Avidin [3]: 10^15 M^−1

C[C@@H]1NC(=O)N[C@@H]1CCCCCC(=O)O [Dethiobiotin]
Binding affinity with Avidin [3]: 10^13 M^−1

N=C1N[C@H]2[C@H](CS[C@H]2CCCCC(=O)O)N1 [Iminobiotin]
Binding affinity with Avidin [3]: 10^11 M^−1

Nc1ncnc2c1ncn2[C@@H]1O[C@@H]2COP(=O)(O)O[C@H]2[C@H]1O [cAMP, cyclic AMP]
Ka of polyclonal antibodies to cAMP [4]: 10^10 to 10^12 M^−1

Regular DNA: 20-mer SEQ ID NO:2 (5′-ccg act gag aag gaa cca cc-3′) as regular DNA [reference compound]
Tm [1]: 66 °C

p-ethoxy 2′-O-methyl: 20-mer SEQ ID NO:2 (5′-ccg act gag aag gaa cca cc-3′) as p-ethoxy 2′-O-methyl
Tm [1]: 71 °C

p-ethoxy DNA: 20-mer SEQ ID NO:2 (5′-ccg act gag aag gaa cca cc-3′) as p-ethoxy DNA
Tm [5]: 55 °C

p-ethoxy RNA: 20-mer SEQ ID NO:2 (5′-ccg act gag aag gaa cca cc-3′) as p-ethoxy RNA
Tm [1]: 56 °C

tetrahydrofolate
Ka [6]: 3e+11 M⁻¹

Source: patent US6440723B1, “Arrays with modified oligonucleotide and polynucleotide compositions” (Oligos Etc. Inc., priority 1998, dated 2002)
